According to patent publication US11873291B2, “Quinoline cGAS antagonist compounds” (ImmuneSensor Therapeutics, Inc., priority 2020, dated 2024):

Target: T1, recombinant human cGAS (aa147-522) (Homo sapiens, UniProt Q8N884)
T1 construct: recombinant human cGAS (aa147-522); His6-SUMO (cleaved yes); made in house; host or cells: E. coli BL21/pLys
Experiment: In vitro inhibition assay of cGAS activity (ATP consumption, KinaseGlo Max)
Type: biochemical
Conditions: Table 2, read-out: cGAS Inhibition Results IC50
How it was run: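 De-tagged recombinant human cGAS (aa147-522, 1.5 μg/mL) was incubated 20 min at 37 °C with herring testis DNA, 6.6 μM ATP and 0.1 mM GTP in Tris pH 7.5/MgCl2 buffer plus serial compound dilutions. Remaining ATP was read by KinaseGlo Max luminescence, and IC50 was fitted from % ATP consumption versus log concentration.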

T1 sequence (Q8N884 147-522): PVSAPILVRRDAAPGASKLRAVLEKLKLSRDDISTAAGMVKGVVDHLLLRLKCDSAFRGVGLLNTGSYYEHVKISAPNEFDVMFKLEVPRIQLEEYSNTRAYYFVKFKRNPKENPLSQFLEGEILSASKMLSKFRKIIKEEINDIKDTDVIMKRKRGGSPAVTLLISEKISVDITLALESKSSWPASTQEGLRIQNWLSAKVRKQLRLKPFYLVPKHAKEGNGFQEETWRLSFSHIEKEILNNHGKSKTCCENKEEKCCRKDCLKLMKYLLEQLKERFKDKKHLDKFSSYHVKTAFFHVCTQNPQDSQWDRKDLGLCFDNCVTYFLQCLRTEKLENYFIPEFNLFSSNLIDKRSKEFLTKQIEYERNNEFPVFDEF

| SMILES | IC50 [nM] |
| --- | --- |
| NS(=O)(=O)C1CCN(c2cc(-n3ccnc3)c3ccc(Cl)c(Cl)c3n2)C1 (centres unmarked) [I-150] | < 2000 |
| NS(=O)(=O)O[C@H]1CCCN(c2cc(-n3ccnc3)c3ccc(Cl)c(Cl)c3n2)C1 [I-119, (S)-1-(7,8-dichloro-4-(1H-imidazol-1-yl)quinolin-2-yl)piperidin-3-yl sulfamate] | 2000 to 30000 |
| CN(CCC(=O)NCCO)c1cc(-c2cn[nH]c2)c2ccc(Cl)c(Cl)c2n1 [I-194] | < 2000 |
| O=C(O)c1ccc(-c2cc(-n3ccnc3)c3ccc(Cl)cc3n2)cc1 [I-4] | 2000 to 30000 |
| O=[PH](O)OCC1CCCN(c2cc(-n3ccnc3)c3ccc(Cl)c(Cl)c3n2)C1 (centres unmarked) [I-110] | < 2000 |
| O=C(O)c1cc(-c2cc(-n3ccnc3)c3ccc(Cl)c(Cl)c3n2)ccc1O [I-42, 5-(7,8-dichloro-4-(1H-imidazol-1-yl)quinolin-2-yl)-2-hydroxybenzoic acid] | < 2000 |
| CN(CCC(=O)N1CCCC(CO)C1)c1cc(-c2cn[nH]c2)c2ccc(Cl)c(Cl)c2n1 (centres unmarked) [I-199] | 2000 to 30000 |
| O=S(=O)(NC1CCCN(c2cc(-n3ccnc3)c3ccc(Cl)cc3n2)C1)c1ccccc1 (centres unmarked) [I-107] | > 30000 |
| OC[C@@H]1CCCN1c1cc(-c2cn[nH]c2)nc2c(Cl)c(Cl)ccc12 [I-298] | > 30000 |
| O=C(O)CNc1cc(-c2ccn[nH]2)nc2c(Cl)c(Cl)ccc12 [I-426] | > 30000 |
| NS(=O)(=O)OCC1CCCN(c2cc(-n3ccnc3)c3ccc(Cl)c(Cl)c3n2)C1 (centres unmarked) [I-118] | < 2000 |
| Clc1cc2nc(-c3ccccc3)cc(-n3ccnc3)c2cc1Cl [I-50] | < 2000 |
| O=c1[nH]c(=O)c2ccc(S(=O)(=O)NC[C@@H]3CCCN3c3cc(-n4ccnc4)c4ccc(Cl)c(Cl)c4n3)cc2[nH]1 [I-392] | 2000 to 30000 |
| O=C(O)[C@@H]1CCCN1c1cc(-c2cn[nH]c2)nc2c(Cl)c(Cl)ccc12 [I-291] | 2000 to 30000 |
| Cc1nccn1-c1ccnc2ccccc12 [I-411] | > 30000 |
| NS(=O)(=O)c1cccc(-c2cc(-n3ccnc3)c3ccc(Cl)c(Cl)c3n2)c1 [I-46] | < 2000 |
| Oc1cc(-c2cc(-n3ccnc3)c3ccc(Cl)cc3n2)ccn1 [I-59] | > 30000 |
| C[C@@H](Nc1cc(-c2cn[nH]c2)c2ccc(Cl)c(Cl)c2n1)C(=O)O [I-180] | 2000 to 30000 |
| Clc1ccc2c(-n3ccnc3)cc(OCc3ccccc3)nc2c1 [I-277, 2-(benzyloxy)-7-chloro-4-(1H-imidazol-1-yl)quinoline] | 2000 to 30000 |
| O=C(O)CC1COCCN1c1cc(-n2ccnc2)c2ccc(Cl)c(Cl)c2n1 (centres unmarked) [I-94] | < 2000 |
| Cc1cc(N2CCCC(S(N)(=O)=O)C2)c2ccc(Cl)c(Cl)c2n1 (centres unmarked) [I-317] | > 30000 |

Same assay, conditions: Table 3, read-out: cGAS Inhibition Results IC50

| SMILES | IC50 [nM] |
| --- | --- |
| O=C(O)CCNC(=O)[C@@H]1CN(c2cc(-n3ccnc3)c3ccc(Cl)c(Cl)c3n2)CCO1 [I-555] | < 2000 |
| COC(=O)[C@@H]1[C@H](OCC(=O)O)CCN1c1cc(-n2ccnc2)c2ccc(Cl)c(Cl)c2n1 [I-648] | 2000 to 30000 |
| NC(=O)CCNC(=O)[C@@H]1CCCN1c1cc(-n2ccnc2)c2ccc(Cl)c(Cl)c2n1 [I-554] | 2000 to 30000 |
| O=C(O)C1(c2ccccc2)CCCN1c1cc(-n2ccnc2)c2ccc(Cl)c(Cl)c2n1 (centres unmarked) [I-457] | 2000 to 30000 |
| O=C(O)C1CC2CCC1N2c1cc(-n2ccnc2)c2ccc(Cl)c(Cl)c2n1 (centres unmarked) [I-494] | < 2000 |
| O=C(O)[C@@H]1C[C@@H](OC(=O)N2CCOCC2)CN1c1cc(-n2ccnc2)c2ccc(Cl)c(Cl)c2n1 [I-606, (2S,4R)-1-(7,8-dichloro-4-(1H-imidazol-1-yl)quinolin-2-yl)-4-((morpholine-4-carbonyl)oxy)pyrrolidine-2-carboxylic acid] | 2000 to 30000 |
| C[C@@H](NC(=O)CCN(C)c1cc(-n2ccnc2)c2ccc(Cl)c(Cl)c2n1)C(=O)O [I-563] | < 2000 |
| Cc1cn(-c2cc(N3CCC[C@H]3COCCC(=O)O)nc3c(Cl)c(Cl)ccc23)cn1 [I-825, (S)-3-((1-(7,8-dichloro-4-(4-methyl-1H-imidazol-1-yl)quinolin-2-yl)pyrrolidin-2-yl)methoxy)propanoic acid] | > 30000 |
